Laboratory results: patent publication US11427564B2, “Heteroaryl pyrimidine compound and pest control agent” (Nippon Soda Co., Ltd., priority 2017, dated 2022)

Tests used:
Aphis craccivora = assay: Efficacy test against Aphis craccivora (spray on cowpea plants); assay type: in vivo; settings: 125 ppm sprayed on cowpea plants infested with nymphs; 25° C., humidity 60%; 4 days after spraying
Protocol: The insecticidal rate was calculated by the following formula. Insecticidal rate (%)=(number of dead insects/number of tested insects)×100 Cowpea plants were raised in No. 3 pots, and nymphs of Aphis craccivora were inoculated on the primary leaves. The emulsion (1) was diluted with water so that the concentration of the compound of the present invention was 125 ppm, and the diluent was sprayed on the cowpea plants infested with nymphs of Aphis craccivora. The cowpea plants were placed in a thermostatic chamber with a temperature of 25° C. and a humidity of 60%. […] The test was repeated twice.

Plutella xylostella = assay: Efficacy test against Plutella xylostella (cabbage leaf immersion); assay type: in vivo; settings: 125 ppm, cabbage leaf immersed 30 seconds; second instar larvae; 25° C., humidity 60%; 3 days after insect release
Protocol: The insecticidal rate was calculated by the following formula. Insecticidal rate (%)=(number of dead insects/number of tested insects)×100 The emulsion (1) was diluted with water so that the concentration of the compound of the present invention was 125 ppm. A cabbage leaf was immersed in the diluent for 30 seconds. This cabbage leaf was placed in a petri dish. Five second instar larvae of Plutella xylostella were released therein. The petri dish was placed in a thermostatic chamber with a temperature of 25° C. and a humidity of 60%. […] The test was repeated twice.

| SMILES | melting point | insecticidal rate (Aphis craccivora) | insecticidal rate (Plutella xylostella) |
| --- | --- | --- | --- |
| Br.CCS(=O)(=O)c1cnc(-c2ncccn2)nc1-c1ccc(O)cn1 | 234 to 239 °C |  |  |
| CCS(=O)(=O)c1cnc(-c2ncn(C)n2)nc1-c1ccc(C(F)(F)C(F)(F)C(F)(F)C(F)(F)F)nn1 | 182 to 185 °C |  |  |
| CCS(=O)(=O)c1cnc(N)nc1-c1ccc(C(F)(F)C(F)(F)C(F)(F)C(F)(F)F)nn1 | 186 to 188 °C |  |  |
| CCS(=O)(=O)c1cnc(NC(=O)C(F)(F)F)nc1-c1ccc(OCC(F)(F)C(F)(F)C(F)(F)F)cn1 [1-80] |  | ≥ 80% | ≥ 80% |

Further lines, with some results ahead:

| melting point | SMILES | insecticidal rate (Aphis craccivora) | insecticidal rate (Plutella xylostella) |
| --- | --- | --- | --- |
| 209 to 210 °C | CCS(=O)(=O)c1cnc(-c2ncccn2)nc1-c1ccc(OCC(F)(F)F)nn1 [2-8] |  |  |
| 212 to 214 °C | CCS(=O)(=O)c1cnc(O)cc1-c1ccc(OCC(F)(F)C(F)(F)F)cn1 [2-11] |  |  |
